From patent publication US5491172A, “N-acyl sulfamic acid esters (or thioesters), N-acyl sulfonamides, and N-sulfonyl carbamic acid esters (or thioesters) as hypercholesterolemic agents” (Warner-Lambert Company, priority 1994, dated 1996)
Structures can show the parent of a compound that is named as a salt.

Key:
[1] = in vivo screen APCC: blood cholesterol in rats fed overnight a high fat, high cholesterol (PCC) diet; settings: male Sprague-Dawley rats, dosed at 4 PM, PCC diet with 0.5% cholic acid overnight, blood sampled 8 AM, dose not given
Text: In one in vivo screen designated APCC, male Sprague-Dawley rats (200 to 225 g) were randomly divided into treatment groups and dosed at 4 PM with either vehicle (CMC/Tween) or suspensions of compounds in vehicle. The normal chow diet was then replaced with a high fat, high cholesterol diet (designated PCC) containing 0.5% cholic acid. The rats consumed this diet ad libitum during the night and were sacrificed at 8 AM to obtain blood samples for cholesterol analysis using standard procedures. Statistical differences between mean cholesterol values for the same vehicle were determined using analysis of variance followed by Fisher's least significant test.

[2] = molecular target: acyl-CoA:cholesterol acyltransferase (ACAT); assay: in vitro ACAT inhibition (LAI): radiolabeled cholesterol oleate formed from radiolabeled oleic acid in rat liver microsomes; type: biochemical; settings: concentration required to inhibit enzyme activity by 50%
Experimental: The ability of representative compounds of the present invention to inhibit ACAT was measured using an in vitro test more fully described in Field FJ, Salone RG, Biochemica et Biophysica, 1982;712:557-570. The test assesses the ability of a test compound to inhibit the acylation of cholesterol by oleic acid by measuring the amount of radiolabeled cholesterol oleate formed from radiolabeled oleic acid in a tissue preparation containing rat liver microsomes.

| Compound | % Change (mg/dl) in cholesterol [1] | IC50 [2] [µM] | % Change (mg/dl) in cholesterol ([1]; sodium salt) [%] | IC50 ([2]; sodium salt) [µM] |
| --- | --- | --- | --- | --- |
| Cc1cc(C)c(CC(=O)NS(=O)(=O)Oc2c(C(C)C)cccc2C(C)C)c(C)c1 [Example 18, sulfamic acid[2,4,6-trimethylphenyl(acetyl)]-2,6-bis(1-methylethyl)phenyl ester] | -47% | 22 | – | – |
| CC(C)c1cc(C(C)C)c(CC(=O)NS(=O)(=O)Oc2c(C(C)C)cccc2C(C)C)c(C(C)C)c1 [Example 6, sulfamic acid[[2,4,6-tris(1-methylethyl)phenyl]acetyl]-2,6-bis(1-methylethyl)phenylester sodium salt] | – | – | -75 | – |
| CC(C)c1cccc(C(C)C)c1OS(=O)(=O)NC(=O)C1(c2ccccc2)CCCC1 [Example 30, sulfamic acid[(1-phenylcyclopentyl)carbonyl]-2,6-bis(1-methylethyl)phenyl ester] | -40% | 4.1 | – | – |
| CC(C)c1cccc(C(C)C)c1CC(=O)NS(=O)(=O)Oc1c(C(C)C)cccc1C(C)C [Example 1, sulfamic acid[[2,6-bis(1-methylethyl)phenyl]acetyl]-2,6-bis(1-methylethyl)phenyl ester] | -63% | 9.7 | – | – |
| CC(C)c1cc(C(C)C)c(C(F)C(=O)NS(=O)(=O)Oc2c(C(C)C)cccc2C(C)C)c(C(C)C)c1 (centres unmarked) [Example 44, sulfamic acid[fluoro[2,4,6-tris(1-methylethyl)phenyl]acetyl]-2,6-bis(1-methylethyl)phenyl ester] | -74% | 9.4 | – | – |
| CC(C)c1cccc(C(C)C)c1OS(=O)(=O)NC(=O)C(c1ccccc1)C1CCCC1 (centres unmarked) [Example 25, sulfamic acid(cyclopentylphenylacetyl)-2,6-bis(1-methylethyl)phenyl ester] | -71% | 7.2 | – | – |
| CC(C)c1cccc(C(C)C)c1OS(=O)(=O)NC(=O)C(c1ccccc1)C1CCCCC1 (centres unmarked) [Example 33, sulfamic acid(cyclohexylphenylacetyl)-2,6-bis(1-methylethyl)phenyl ester] | -63% | 9.3 | – | – |
| CC(C)c1cccc(C(C)C)c1OS(=O)(=O)NC(=O)[C@@H]1C[C@H]1c1ccccc1 (relative stereo) [Example 15, sulfamic acid trans-[(2-phenylcyclopropyl)carbonyl]-2,6-bis(1-methylethyl)phenyl ester] | -14% | – | – | – |
| CCC(C(=O)NS(=O)(=O)Oc1c(C(C)C)cccc1C(C)C)c1ccccc1 (centres unmarked) [Example 32, sulfamic acid(1-oxo-2-phenylbutyl)-2,6-bis(1-methylethyl)phenyl ester] | -48% | 8.9 | – | – |
| CC(C)c1cccc(C(C)C)c1OS(=O)(=O)NC(=O)Cc1c(Cl)cccc1Cl [Example 14, sulfamic acid[2,6-dichlorophenyl(acetyl)]-2,6-bis(1-methylethyl)phenyl ester] | -12% | 33 | – | – |
| CC(C)c1cccc(C(C)C)c1OS(=O)(=O)NC(=O)Cc1cccs1 [Example 19, sulfamic acid[2-thiophenyl(acetyl)]-2,6-bis(1-methylethyl)phenyl ester] | -20% | > 50 | – | – |
| CC(C)c1cccc(C(C)C)c1OS(=O)(=O)NC(=O)C(c1ccccc1)c1ccccc1 [Example 27, sulfamic acid(diphenylacetyl)-2,6-bis(1-methylethyl)phenyl ester] | -72% | 12 | – | – |
| COc1cc(OC)c(CC(=O)NS(=O)(=O)Oc2c(C(C)C)cccc2C(C)C)c(OC)c1 [Example 17, sulfamic acid[2,4,6-trimethoxyphenyl(acetyl)]-2,6-bis(1-methylethyl)phenyl ester] | -40% | > 50 | – | – |
| CC(C)c1cccc(C(C)C)c1OS(=O)(=O)NC(=O)Cc1ccsc1 [Example 20, sulfamic acid[3-thiophenyl(acetyl)]-2,6-bis(1-methylethyl)phenyl ester] | -19% | > 50 | – | – |
| CC(C)c1cccc(C(C)C)c1OS(=O)(=O)NC(=O)C(Br)c1ccccc1 (centres unmarked) [Example 39, sulfamic acid[bromo(phenyl)acetyl]-2,6l-bis(1-methylethyl)phenyl ester] | +5% | 32 | – | – |
| CC(C)c1cc(C(C)C)c(C=CC(=O)NS(=O)(=O)Oc2c(C(C)C)cccc2C(C)C)c(C(C)C)c1 [Example 40, sulfamic acid[1-oxo-3-[2,4,6-tris-(1-methylethyl)phenyl]-2-propenyl]-2,6-bis-(1-methylethyl)phenyl ester] | -54% | 32 | – | – |
| CC(C)c1cc(C(C)C)c(CCC(=O)NS(=O)(=O)Oc2c(C(C)C)cccc2C(C)C)c(C(C)C)c1 [Example 41, sulfamic acid[1-oxo-3-[2,4,6-tris(1-methylethyl)phenyl]propyl]-2,6-bis(1-methylethyl)phenyl ester] | -73% | 28 | – | – |

| Compound | % Change (mg/dl) in cholesterol [1] | IC50 [2] [µM] | % Change (mg/dl) in cholesterol ([1]; sodium salt) [%] | IC50 ([2]; sodium salt) [µM] |
| --- | --- | --- | --- | --- |
| CC(C)c1cccc(C(C)C)c1OS(=O)(=O)NC(=O)C(c1ccc(Cl)cc1)c1ccc(Cl)cc1 [Example 35, sulfamic acid[bis-(4-chlorophenyl)acetyl]-2,6-bis(1-methylethyl)phenyl ester] | -9% | 8.9 | – | – |
| CC(C)c1cccc(C(C)C)c1OS(=O)(=O)NC(=O)C(c1ccccc1)(c1ccccc1)c1ccccc1 [Example 28, sulfamic acid(triphenylacetyl)-2,6-bis(1-methylethyl)phenyl ester] | -30% | 6 | – | – |
| CC(C)c1cc(C(C)C)c(OCC(=O)NS(=O)(=O)Oc2c(C(C)C)cccc2C(C)C)c(C(C)C)c1 [Example 46, sulfamic acid[[2,4,6-tris(1-methylethyl)phenoxy]acetyl]-2,6-bis(1-methylethyl)phenyl ester] | -57% | 34 | – | – |
| CC(C)c1cc(C(C)C)c(OS(=O)(=O)NC(=O)Cc2c(C(C)C)cccc2C(C)C)c(C(C)C)c1 [Example 3, sulfamic acid[[2,6-bis(1-methylethyl)phenyl]acetyl]-2,4,6-tris(1-methylethyl)phenylester] | -79% | 11 | – | – |
| CC(C)c1cccc(C(C)C)c1OS(=O)(=O)NC(=O)C1c2ccccc2-c2ccccc21 [Example 37, sulfamic acid[(9H-fluoren-9yl)carbonyl]-2,6-bis(1-methylethyl)phenyl ester] | -50% | 16 | – | – |
| CC(C)c1cccc(C(C)C)c1OS(=O)(=O)NC(=O)CC12CC3CC(CC(C3)C1)C2 [Example 4, sulfamic acid[adamantaneacetyl]-2,6-bis[1-methylethyl]phenyl ester] | -47% | 13 | – | – |
| CCC(C)C(C(=O)NS(=O)(=O)Oc1c(C(C)C)cccc1C(C)C)c1ccccc1 (centres unmarked) [Example 31, sulfamic acid(3-methyl-1-oxo-2-phenylpentyl)-2,6-bis(1-methylethyl)phenyl ester] | -30% | 3.3 | – | – |
| CC(C)c1cccc(C(C)C)c1OS(=O)(=O)NC(=O)C1c2ccccc2Oc2ccccc21 [Example 36, sulfamic acid[(9H-xanthen-9-yl)carbonyl]-2,6-bis(1-methylethyl)phenyl ester] | -6% | 22 | – | – |
| CC(C)c1cccc(C(C)C)c1OS(=O)(=O)NC(=O)C12CC3CC(CC(C3)C1)C2 [Example 12] | -5% | – | – | – |
| CC(C)c1cccc(C(C)C)c1OS(=O)(=O)NC(=O)Cc1ccccc1C(F)(F)F [Example 23, sulfamic acid[2-trifluoromethylphenyl(acetyl)]-2,6-bis(1-methylethyl)phenyl ester] | -19% | 12 | – | – |
| CC(C)c1cccc(C(C)C)c1CC(=O)NS(=O)(=O)Oc1c(C(C)C)cccc1C(C)C [Example 2, sulfamic acid[[2,6-bis(1-methylethyl)phenyl]acetyl]-2,6-bis(1-methylethyl)phenyl ester sodium salt] | – | – | -62 | 12 |
| CC(C)c1cc(C(C)C)c(CC(=O)NS(=O)(=O)Oc2c(C(C)C)cccc2C(C)C)c(C(C)C)c1 [Example 5, Sulfamic acid[[2,4,6-tris(1-methylethyl)phenyl]acetyl]-2,6-bis(1-methylethyl)phenylester] | -73% | 12 | – | – |
| CC(C)c1cccc(C(C)C)c1OS(=O)(=O)NC(=O)C(C)(c1ccccc1)c1ccccc1 [Example 34, sulfamic acid(1-oxo-2,2-diphenylpropyl)-2,6-bis(1-methylethyl)phenyl ester] | -67% | 7.7 | – | – |
| CC(C)c1cccc(C(C)C)c1OS(=O)(=O)NC(=O)C1CCc2ccccc2C1 (centres unmarked) [Example 29, sulfamic acid[(1,2,3,4-tetrahydro-2-naphthyl)carbonyl]-2,6-bis(1-methylethyl)phenylester] | -9% | 15 | – | – |
| CC(C)c1cccc(C(C)C)c1OS(=O)(=O)NC(=O)CC(c1ccccc1)c1ccccc1 [Example 13, sulfamic acid(1-oxo-3,3-diphenylpropyl)-2,6-bis(1-methylethyl)phenyl ester] | -31% | 25 | – | – |
| CCCCCCCCCC(=O)NS(=O)(=O)Oc1c(C(C)C)cccc1C(C)C [Example 10, sulfamic acid (decanoyl)-2,6-bis(1-methylethyl)phenyl ester] | -26% | – | – | – |
